Experimental data published in ChEMBL document CHEMBL1201862, “PubChem BioAssay data set” (2004).
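These data come from cells grown in 96-well plates and exposed to compound for 48 hours at five concentrations. GI50 marks 50% less growth.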 Activity calls are given as the source filed them. Rule as the data show it: active = GI50 up to about 1.1 µM and inactive = higher.

Tests used:
Experiment in all cases: growth of human tumour cells (NCI), 48 h
[1] = test system: OVCAR-8
[2] = test system: SNB-75
[3] = test system: MDA-MB-231
[4] = test system: KM12
[5] = test system: PC-3
[6] = test system: SF-295
[7] = test system: NCI-H23
[8] = test system: SF-539
[9] = test system: 786-0
[10] = test system: COLO 205
[11] = test system: NCI-H226
[12] = test system: NCI-H522
[13] = test system: HOP-62
[14] = test system: MOLT-4
[15] = test system: M14
[16] = test system: Hs-578T
[17] = test system: RPMI-8226
[18] = test system: SK-OV-3
[19] = test system: OVCAR-3
[20] = test system: CAKI-1
[21] = test system: SNB-19
[22] = test system: TK-10
[23] = test system: A549
[24] = test system: MDA-N
[25] = test system: A498
[26] = test system: SF-268
[27] = test system: T47D
[28] = test system: SK-MEL-2
[29] = test system: IGROV-1
[30] = test system: RXF 393
[31] = test system: SK-MEL-28
[32] = test system: Malme-3M
[33] = test system: NCI-H460
[34] = test system: MCF7
[35] = test system: HCT-15
[36] = test system: HCC 2998
[37] = test system: BT-549
[38] = test system: ACHN
[39] = test system: U-251
[40] = test system: NCI/ADR-RES
[41] = test system: HCT-116
[42] = test system: SN12C
[43] = test system: OVCAR-4
[44] = test system: UACC-257
[45] = test system: CCRF-CEM
[46] = test system: OVCAR-5
[47] = test system: HT-29
[48] = test system: UACC-62
[49] = test system: K562
[50] = test system: UO-31
[51] = test system: HOP-92
[52] = test system: LOX IMVI
[53] = test system: SR
[54] = test system: DU-145
[55] = test system: SW-620
[56] = test system: SK-MEL-5
[57] = test system: MDA-MB-435
[58] = test system: EKVX
[59] = test system: HL-60

NC(=O)c1ccc(S(=O)(=NS(=O)(=O)c2ccccc2)c2ccc(C(N)=O)cc2)cc1
GI50 [1]: > 100 µM (inactive)
GI50 [2]: > 100 µM (inactive)
GI50 [3]: > 100 µM (inactive)
GI50 [4]: > 100 µM (inactive)
GI50 [5]: > 100 µM (inactive)
GI50 [6]: > 100 µM (inactive)
GI50 [7]: > 100 µM (inactive)
GI50 [8]: > 100 µM (inactive)
GI50 [9]: > 100 µM (inactive)
GI50 [10]: > 100 µM (inactive)
GI50 [11]: > 100 µM (inactive)
GI50 [12]: > 100 µM (inactive)
GI50 [13]: > 100 µM (inactive)
GI50 [14]: > 100 µM (inactive)
GI50 [15]: > 100 µM (inactive)
GI50 [16]: > 100 µM (inactive)
GI50 [17]: > 100 µM (inactive)
GI50 [18]: > 100 µM (inactive)
GI50 [19]: > 100 µM (inactive)
GI50 [20]: > 100 µM (inactive)
GI50 [21]: > 100 µM (inactive)
GI50 [22]: > 100 µM (inactive)
GI50 [23]: > 100 µM (inactive)
GI50 [24]: > 100 µM (inactive)
GI50 [25]: > 100 µM (inactive)
GI50 [26]: > 100 µM (inactive)
GI50 [27]: > 100 µM (inactive)
GI50 [28]: > 100 µM (inactive)
GI50 [29]: > 100 µM (inactive)
GI50 [30]: > 100 µM (inactive)
GI50 [31]: > 100 µM (inactive)
GI50 [32]: > 100 µM (inactive)
GI50 [33]: > 100 µM (inactive)
GI50 [34]: > 100 µM (inactive)
GI50 [35]: > 100 µM
GI50 [36]: > 100 µM (inactive)
GI50 [37]: > 100 µM (inactive)
GI50 [38]: > 100 µM (inactive)
GI50 [39]: > 100 µM (inactive)
GI50 [40]: > 100 µM (inactive)
GI50 [41]: > 100 µM (inactive)
GI50 [42]: > 100 µM (inactive)
GI50 [43]: > 100 µM (inactive)
GI50 [44]: > 100 µM (inactive)
GI50 [45]: > 100 µM (inactive)
GI50 [46]: > 100 µM (inactive)
GI50 [47]: > 100 µM (inactive)
GI50 [48]: > 100 µM (inactive)
GI50 [49]: > 100 µM (inactive)
GI50 [50]: > 100 µM (inactive)
GI50 [51]: > 100 µM (inactive)
GI50 [52]: > 100 µM (inactive)
GI50 [53]: > 100 µM (inactive)
GI50 [54]: > 100 µM (inactive)
GI50 [55]: > 100 µM (inactive)
GI50 [56]: > 100 µM (inactive)
GI50 [57]: > 100 µM (inactive)
GI50 [58]: > 100 µM (inactive)
GI50 [59]: > 100 µM (inactive)

Cc1c2cccc-2c(OCCO)cc2c1[nH]c1ccccc12
GI50 [1]: 3.6 µM (inactive)
GI50 [2]: 1.71 µM (inactive)
GI50 [3]: 1.98 µM (inactive)
GI50 [4]: 2.58 µM (inactive)
GI50 [5]: 2.72 µM (inactive)
GI50 [6]: 3.26 µM (inactive)
GI50 [7]: 2.54 µM (inactive)
GI50 [8]: 1.74 µM (inactive)
GI50 [9]: 2.24 µM (inactive)
GI50 [10]: 1.87 µM (inactive)
GI50 [11]: 2.96 µM (inactive)
GI50 [12]: 1.83 µM (inactive)
GI50 [13]: 3.42 µM (inactive)
GI50 [14]: 2.99 µM (inactive)
GI50 [15]: 1.97 µM (inactive)
GI50 [16]: 1.67 µM (inactive)
GI50 [17]: 3 µM (inactive)
GI50 [18]: 3.27 µM (inactive)
GI50 [19]: 1.81 µM (inactive)
GI50 [20]: 1.59 µM (inactive)
GI50 [21]: 8.57 µM (inactive)
GI50 [22]: 4.06 µM (inactive)
GI50 [23]: 3.15 µM (inactive)
GI50 [24]: 2.76 µM (inactive)
GI50 [25]: 11.8 µM (inactive)
GI50 [26]: 1.65 µM (inactive)
GI50 [27]: 3.24 µM (inactive)
GI50 [28]: 3.72 µM (inactive)
GI50 [29]: 1.88 µM (inactive)
GI50 [30]: 2.37 µM (inactive)
GI50 [31]: 4.49 µM (inactive)
GI50 [32]: 1.73 µM (inactive)
GI50 [33]: 3.61 µM (inactive)
GI50 [34]: 2.69 µM (inactive)
GI50 [35]: 3.16 µM
GI50 [36]: 3.15 µM (inactive)
GI50 [37]: 2.92 µM (inactive)
GI50 [38]: 1.64 µM (inactive)
GI50 [39]: 1.89 µM (inactive)
GI50 [40]: 3.03 µM (inactive)
GI50 [41]: 3.01 µM (inactive)
GI50 [42]: 2.09 µM (inactive)
GI50 [43]: 3.43 µM (inactive)
GI50 [44]: 3.15 µM (inactive)
GI50 [45]: 4.75 µM (inactive)
GI50 [46]: 2.26 µM (inactive)
GI50 [47]: 3.52 µM (inactive)
GI50 [48]: 2.67 µM (inactive)
GI50 [49]: 3.1 µM (inactive)
GI50 [50]: 1.5 µM (inactive)
GI50 [51]: 2.75 µM (inactive)
GI50 [52]: 1.95 µM (inactive)
GI50 [53]: 5.27 µM (inactive)
GI50 [54]: 5.32 µM (inactive)
GI50 [55]: 3.52 µM (inactive)
GI50 [56]: 1.34 µM (inactive)
GI50 [57]: 3.53 µM (inactive)
GI50 [58]: 1.04 µM (active)
GI50 [59]: 2.16 µM (inactive)
